# In US9101582B2, “Use of a pneumococcal P4 peptide for enhancing opsonophagocytosis in response to a pathogen” (priority 2008, dated 2015):
# “And” between values parts separate entries of the source, which are not always exact repeats. Equal values may be shown once. “Also recorded” adds a separate entry of the source. Ends that are not written are not given here.
# How the values were obtained:
# [1] = tested on: S. pneumoniae serotype 3 (WU2); assay: Combination therapy of moribund mice after intranasal S. pneumoniae WU2 infection (Example 2); assay type: in vivo
# Text: S. pneumoniae serotype 3 (WU2) was used for mouse infections as described previously (Rajam et al. J. Infect. Dis. 199:1233-1238, 1999). P4, a 28-amino-acid peptide, was synthesized, purified, and prepared for combination therapy as described previously (Carlone et al. Microb. Pathog. 44:186-196, 2008). Gamma globulin (intravenous immunoglobulin [IVIG]; Gamunex, Telecris, N.C.) was used as a source of Pnc serotype-specific polysaccharide antibodies (Frasch and Scott Clin. Diagn. Lab. Immunol. 11:1158-1164, 2004; Rajam et al., Clin. Vaccine Immunol. 14:1223-1227, 2007; Romero-Steiner et al., Clin. Diagn. Lab. Immunol. 10:1019-1024, 2003). Ceftriaxone (catalog no. C5793; Sigma-Aldrich, St. Louis, Mo.), an expanded-spectrum cephalosporin, was dissolved in phosphate-buffered saline (0.01 M), and working dilutions in phosphate-buffered saline were made for mouse inoculations.
# Female Swiss Webster mice (Charles River Laboratories, Wilmington, Mass.) 6 to 10 weeks of age were used in this study. All experiments were approved by the Institutional Animal Care and Use Committee (IACUC) and conducted according to the institutional ethical guidelines for animal experiments and safety guidelines.
# Intranasal infections of mice with a Pnc isolate were carried out by adopting the methodology described by Briles et al., 2003. Briefly, a mouse was injected intraperitoneally (ip) with 20 μl of 100-mg/ml ketamine hydrochloride (KETASET®; Wyeth). Once the mouse was lethargic, 40 μl of the bacterial suspension (˜2.1×10^7 cells/mouse) was dispensed drop by drop close to the nose, allowing the mouse to inhale the bacteria. Scruffiness combined with a hunched posture or lethargy indicated moribundity in a mouse. […] Control groups included untreated animals or animals that received P4 alone, IVIG alone, or ceftriaxone (at 0.3, 3.0, 300, or 3,000 μg/mouse) alone. Treatment groups included mice that received a single inoculum containing P4 and IVIG with or without ceftriaxone at one of three different doses (0.3, 3.0, or 300 μg/mouse).
# Mice were restrained using a Tailveiner restrainer (model no. TV-150; Braintree Scientific, Braintree, Mass.). IVIG and/or P4 was administered intravenously (iv) using a 25-gauge needle and a 1-ml syringe. IVIG (100-μl volume/mouse) was administered first, followed 20 min later by P4 (50 μg in a 100-μl volume/mouse). Ceftriaxone was administered (ip in a 100-μl volume/mouse) 30 min after P4 administration. Animals were monitored daily for 7 days or (in the repeat infection study) 36 days post treatment for clinical signs of disease progression. For repeat therapy, mice rescued with P4 combination therapy were reinfected on day 28 post treatment and treated again with P4 combination therapy.
# The in vivo combination therapy experiments were repeated three to five times, and repeat therapy was performed once. The numbers of moribund animals up to 7 and 36 days after the combination and repeat therapies, respectively, were recorded, and the data were analyzed for significant differences among various groups by using the paired two-sample t test for means in MICROSOFT® Excel 2003.
# [2] = tested on: S. pneumoniae serotype 3 (WU2); assay: Opsonophagocytic killing (OPK) assay with HL-60 cells differentiated into granulocytes; assay type: cell-based, Streptococcus pneumoniae
# [3] = tested on: HL-60-derived granulocytes; assay: Flow cytometric opsonophagocytic assay (fOPA), respiratory burst with OXYBURST-labeled S. pneumoniae serotype 23F; assay type: cell-based, human; settings: P4 100 μg/mL; QC2 serum; titrated out with antibody dilution; FIG. 2A
# Description: (§1) The flow cytometric opsonophagocytic assay (fOPA) was performed with HL-60 cells differentiated into granulocytes or monocytes as described by Martinez et al., Clin Diagn Lab Immunol 9:485-8, 2002; Martinez et al., Clin Vaccine Immunol 13:459-66, 2006; and Mezzatesta et al., Infect Immun 42:99-105, 1983. In-house quality-control sera (QC5 and QC268) were used as a source for serotypespecific antibodies against the capsular Ps of S. pneumoniae serotype 14 and Neisseria meningitides A, respectively. Polystyrene beads were covalently linked to S. pneumoniae and non-S. pneumoniae antigens, as described by Martinez et al., Clin Diagn Lab Immunol 9:485-8, 2002; and Martinez et al., Clin Vaccine Immunol 13:459-66, 2006 and used in fOPA.
# A loopful of the frozen stock of S. pneumoniae serotype 23F was grown overnight (37° C. in 5% CO2) in Todd-Hewitt broth (Difco) supplemented with 0.5% yeast extract (THYE). A loopful of the overnight culture was transferred to 1 mL of fresh THYE broth and incubated for 3 hours. From this, 200 μL was transferred to 5 mL of THYE broth and incubated for 3 hours, after which 1 mL was transferred to 5 mL of THYE broth and incubated for another 3 hours (all incubations were done at 37° C. in 5% CO2). After the third passage, the bacterial suspension was centrifuged at 6000 g for 10 minutes and resuspended in 1 mL of 0.01 mol/L phosphate buffered saline (PBS). […]
# [4] = tested on: freshly isolated granulocytes from human blood; assay: fOPA, opsonophagocytic uptake (OPU) of S. pneumoniae serotype 14 Ps-coated beads; assay type: cell-based; settings: P4 100 μg/mL
# Description: as §1
# Heparinized venous blood was obtained from the Emory Blood Donor Services. A leukocyte separation kit, HISTOPAQUE®-1119 (Sigma), was used to separate granulocytes from the blood, in accordance with the method recommended by the manufacturer.
# [5] = tested on: HL-60-derived monocytes; assay: fOPA, OPU of N. meningitidis A Ps-coated beads; assay type: cell-based, human; settings: P4 100 μg/mL; QC268 serum; FIG. 2C
# Description: as §1
# [6] = P4 toxicity test in mice; assay type: in vivo; settings: ip, 1, 10, 100 and 1000 μg/mouse; 10-week-old ND4-SW mice
# Description: At 72 hours, all the infected mice were moribund (n=60; moribund score, 2-3 [see below]). At 72 and 96 hours after infection, 40 animals were passively immunized with gamma globulin (100 μL/mouse; iv, n=20; ip, n=20). After a time lapse of 20 minutes, allowing for possible preopsonization in vivo, 20 of the passively immunized mice (intravenous (iv), n=10; intraperitoneal (ip), n=10) received P4 (100 μg; 100 μL/mouse) through an iv or ip route. Control mice were given DEPC water (100 μL) or P4 alone. Initially, P4 peptide was tested for toxicity in mice at 1, 10, 100, and 1000 μg. P4 was injected ip into 10-week-old ND4-SW mice at a constant volume of 100 μL.
# [7] = tested on: S. pneumoniae serotype 3 (WU2); assay: Test for bacteremia in blood of treated mice; assay type: in vivo; settings: P4-treated mice
# Description: Blood samples from P4-treated and untreated mice were collected (Rajam et al., J. Infect. Dis. 199:1233-1238, 2009), and […] aliquots of the heparinized blood samples were spread onto plates of blood agar (blood agar base plus 5% sheep blood plus gentamicin [2.5 mg/liter]). The plates were incubated for 18 to 24 hours at 37° C. in 5% CO^2, and bacteria were counted.
# [8] = tested on: S. pneumoniae serotype 3 (WU2); settings: P4 100 μg/ml; PMNs from infected (1 and 2 hours postinfection) or uninfected mice; gamma globulin as IgG source; P<0.05
# Description: We used the in vitro opsonophagocytic killing assay (OPKA) as described previously by Romero-Steiner et al. (Romero-Steiner et al., Clin. Diagn. Lab. Immunol. 4:415-422, 1997) with polymorphonuclear leukocytes (PMNs) isolated from mice (Devi et al., Indian J. Physiol. Pharmacol. 39:354-360, 1995). Peripheral blood samples were collected from mice 1 and 2 hours postinfection (with Pnc WU2) or from uninfected controls as described previously (Frasch and Scott, 2004), and the buffy coat fractions were separated (Devi et al, 1995) and used as the source of effector cells. Gamma globulin (Gamunex, Telecris, N.C.) was used as the serotype-specific antibody source. S. pneumoniae serotype 3 (WU2) was propagated, stored, and used in this assay as described previously (Rajam et al., 2007; Romero-Steiner, 2006). A 100-μg/ml P4 peptide solution was added to the OPKA mixture at the preopsonization stage, and the control wells received diethyl pyrocarbonate water.
# [9] = tested on: anti-P4 IgG; settings: serum 14 days post infection from mice treated with P4 therapy
# Description: Blood samples from mice treated with P4 therapy were collected 14 days post infection, and the serum fractions were separated by adopting the methodology described previously (Rajam, 2009). An enzyme-linked immunosorbent assay (ELISA) was performed to detect and quantify antiprotein immunoglobulin G (IgG) as described previously, with minor modifications (Scott, et al., Clin. Diagn. Lab. Immunol. 12:1195-1201, 2005; Scott et al., J. Infect. Dis. 186:220-226, 2002). Briefly, ELISA plates were coated with the P4 peptide at a 5-μg/ml concentration. Plates were incubated at 4° C. overnight and used to detect and quantify anti-P4 IgG in mouse sera. Horseradish peroxidase-labeled anti-mouse IgG (Sigma, St. Louis, Mo.) was used as the reporter antibody. SUREBLUE® 3,3′,5,5′-tetramethylbenzidine (KPL, Gaithersburg, Md.) was used as the substrate, and 1 N HCl was used as the stop solution. Samples were assayed in triplicate, and suitable positive and negative controls were included.
molecule,measurement,setting,value
"CO/N=C(\C(=O)N[C@@H]1C(=O)N2C(C(=O)O)=C(CSc3nc(=O)c(=O)[nH]n3C)CS[C@H]12)c1csc(N)n1 [ceftriaxone, Ceftriaxone]",protection (survival comparable to untreated controls),[1]; ceftriaxone alone 0.3 μg ip,poor protection
same,protection (survival comparable to untreated controls),[1]; ceftriaxone alone 3.0 μg ip,poor protection
same,protection (survival comparable to untreated controls),[1]; ceftriaxone alone 300 μg ip,poor protection
same,survival rate,"[1]; ceftriaxone alone 3,000 μg ip, 168 hours",90%
LFVESSVKRRPMKTVSQDTNIPIYAQIF [P4],P4-mediated change in OPK over control,"[2]; P4 5 μg/mL, gamma globulin 1:8, FIG. 1C",no change in OPK
same,P4-mediated increase in OPK over control,"[2]; P4 10 μg/mL, gamma globulin 1:8, FIG. 1C",8%
same,P4-mediated increase in OPK over control,"[2]; P4 50 μg/mL, gamma globulin 1:8, FIG. 1C",30%
same,P4-mediated increase in OPK over control,"[2]; P4 100 μg/mL, gamma globulin 1:8, FIG. 1C",35%
same,P4-mediated increase in OPK over control,"[2]; absence of a complement source (heat-inactivated complement), FIG. 1B",no increase in OPK
same,P4-mediated increase in OPK over control,"[2]; gamma globulin 1:8 dilution, P4 100 μg/mL, FIG. 1A",35%
same,P4-mediated increase in OPK over control,"[2]; gamma globulin 1:32 dilution, FIG. 1A",paralleling the results obtained for controls
same,intraphagocytic respiratory burst (OXYBURST signal),[3],increase in the intraphagocytic respiratory burst; also recorded: increased the respiratory burst
same,increase in OPU of S. pneumoniae serotype 14 Ps beads,[4]; antibody dilution 1:64,52%
same,increase in OPU of S. pneumoniae serotype 14 Ps beads,[4]; antibody dilution 1:128,48%
same,increase in OPU of S. pneumoniae serotype 14 Ps beads,[4]; antibody dilution 1:256,25%
same,increase in OPU of S. pneumoniae serotype 14 Ps beads,[4]; antibody dilution 1:512,5%
same,OPU of S. pneumoniae serotype 14 Ps-coated beads (in words),"[4]; in the presence of QC2, FIG. 2B legend",increased the OPU
same,increase in OPU of S. pneumoniae serotype 14 Ps beads,"[4]; overall figure, FIG. 2B",50%
same,OPU of N. meningitidis A Ps-coated beads,[5],increase in the OPU; also recorded: increased the OPU
same,toxic effect on mice,[6],no apparent toxic effect
same,protection (survival comparable to untreated controls),[1]; P4 alone,poor protection
same,bacteremia in blood samples,[7],no bacteremia
same,increase in opsonophagocytic killing over control,[8],> 80% and 80%
same,anti-P4 IgG in serum,[9],negative
